Reference: US12502393B2, “Dual mode of action soluble guanylate cyclase activators and phosphodiesterase inhibitors and uses thereof” (TOPADUR PHARMA AG, priority 2018, dated 2025)
Where two headings read alike, the source gives them in different places.

Experiments:
[1] = molecular target: T1, recombinant human (rh) PDE5A (Homo sapiens, UniProt O76074); assay: Phosphodiesterase-5 activity assay (radiometric SPA); type: biochemical; details: rhPDE5A1, 0.5 μM cGMP, 20 min at 37° C.
T1 construct: GST; purchased SIGMA E9034

[2] = Human plasma protein binding; type: in vitro ADME; details: for fraction unbound: human
Protocol: An aliquot of 200 μL of human plasma containing test compound was spiked into donor well (red chamber) of the insert. 350 μL of PBS was spiked into receiver well (white chamber) of the insert.
The samples were matrix equilibrated with opposite matrix (25 μL of plasma/buffer sample was matched with 25 μL of blank buffer/plasma). Matrix matched samples were precipitated with 200 μL of acetonitrile containing internal standard. Samples were vortexed at 1000 rpm for 5 min and centrifuged at 4000 rpm for 10 min. Supernatant was separated, diluted 2 fold with water and analysed in LC-MS/MS. (Table 2).

[3] = read-out: % Unbound in human plasma
[4] = read-out: % Bound in human plasma (converted)

Row | Compound | IC50 [1] | further results
1 | 4-ethoxy-3-(5-methyl-4-oxo-7-propyl-3,4-dihydroimidazo[5,1-f][1,2,4]triazin-2-yl)benzenesulfonyl chloride [Compound 24] | 0.4 nM | 
2 | CCCc1nn(C)c2c(=O)[nH]c(-c3cc(S(=O)(=O)N4CCC(C(O)C(CO[N+](=O)[O-])CO[N+](=O)[O-])CC4)ccc3OCC)nc12 (racemic) [Compound 1i, 2-((1-((4-ethoxy-3-(1-methyl-7-oxo-3-propyl-6,7-dihydro-1H-pyrazolo[4,3-d]pyrimidin-5-yl)phenyl)sulfonyl)piperidin-4-yl)(hydroxy)methyl)propane-1,3-diyl dinitrate] | 4.2 nM | % Bound in human plasma [2]: 99.85%; fraction unbound [2, 3]: 0.0015
3 | CCCc1nc(C)c2c(=O)[nH]c(-c3cc(S(=O)(=O)N4CCC(C(O)CCO)CC4)ccc3OCC)nn12 (racemic) [Compound 27, 2-(5-((4-(1,3-dihydroxypropyl)piperidin-1-yl)sulfonyl)-2-ethoxyphenyl)-5-methyl-7-propylimidazo[5,1-f][1,2,4]triazin-4(3H)-one] | 0.4 nM | 
4 | CCCc1nn(C)c2c(=O)[nH]c(-c3cc(S(=O)(=O)N4CCC(C(O)CCO[N+](=O)[O-])CC4)ccc3OCC)nc12 (single isomer, unassigned) [Compound 1e, 3-(1-((4-ethoxy-3-(1-methyl-7-oxo-3-propyl-6,7-dihydro-1H-pyrazolo[4,3-d]pyrimidin-5-yl)phenyl)sulfonyl)piperidin-4-yl)-3-hydroxypropyl nitrate] | 4.6 nM | 
5 | CCCc1nn(C)c2c(=O)[nH]c(-c3cc(S(=O)(=O)N4CCC(C(O)CCO[N+](=O)[O-])CC4)ccc3OCC)nc12 (single isomer, unassigned) [Compound 1f, 3-(1-((4-ethoxy-3-(1-methyl-7-oxo-3-propyl-6,7-dihydro-1H-pyrazolo[4,3-d]pyrimidin-5-yl)phenyl)sulfonyl)piperidin-4-yl)-3-hydroxypropyl nitrate] | 3.8 nM | 
6 | CCCc1nn(C)c2c(=O)[nH]c(-c3cc(S(=O)(=O)N4CCC(C(CO)O[N+](=O)[O-])CC4)ccc3OCC)nc12 (single isomer, unassigned) [Compound 1k, 1-(1-((4-ethoxy-3-(1-methyl-7-oxo-3-propyl-6,7-dihydro-1H-pyrazolo[4,3-d]pyrimidin-5-yl)phenyl)sulfonyl)piperidin-4-yl)-2-hydroxyethyl nitrate] | 0.55 nM | 
7 | CCCc1nn(C)c2c(=O)[nH]c(-c3cc(S(=O)(=O)N4CCC(C(CO)O[N+](=O)[O-])CC4)ccc3OCC)nc12 (single isomer, unassigned) [Compound 1l, 1-(1-((4-ethoxy-3-(1-methyl-7-oxo-3-propyl-6,7-dihydro-1H-pyrazolo[4,3-d]pyrimidin-5-yl)phenyl)sulfonyl)piperidin-4-yl)-2-hydroxyethyl nitrate] | 0.69 nM | 
8 | CCCc1nn(C)c2c(=O)[nH]c(-c3cc(S(=O)(=O)N4CCC([C@@H](CO[N+](=O)[O-])O[N+](=O)[O-])CC4)ccc3OCC)nc12 [Compound 1b, (S)-1-(1-((4-ethoxy-3-(1-methyl-7-oxo-3-propyl-6,7-dihydro-1H-pyrazolo[4,3-d]pyrimidin-5-yl)phenyl)sulfonyl)piperidin-4-yl)ethane-1,2-diyl dinitrate] | 4.9 nM | 
9 | CCCc1nn(C)c2c(=O)[nH]c(-c3cc(S(=O)(=O)N4CCC([C@H](O)CO[N+](=O)[O-])CC4)ccc3OCC)nc12 [Compound 1d, (S)-2-(1-((4-ethoxy-3-(1-methyl-7-oxo-3-propyl-6,7-dihydro-1H-pyrazolo[4,3-d]pyrimidin-5-yl)phenyl)sulfonyl)piperidin-4-yl)-2-hydroxyethyl nitrate] | 1.2 nM | 
10 | CCCc1nn(C)c2c(=O)[nH]c(-c3cc(S(=O)(=O)N4CCC(C(O)(CCO)CCO[N+](=O)[O-])CC4)ccc3OCC)nc12 (centres unmarked) [Compound 1g, 3-(1-((4-ethoxy-3-(1-methyl-7-oxo-3-propyl-6,7-dihydro-1H-pyrazolo[4,3-d]pyrimidin-5-yl)phenyl)sulfonyl)piperidin-4-yl)-3,5-dihydroxypentyl nitrate] | 4.8 nM | 
11 | CCCc1nn(C)c2c(=O)[nH]c(-c3cc(S(=O)(=O)N4CCC(C(O)(CCO[N+](=O)[O-])CCO[N+](=O)[O-])CC4)ccc3OCC)nc12 [Compound 1h, 3-(1-((4-ethoxy-3-(1-methyl-7-oxo-3-propyl-6,7-dihydro-1H-pyrazolo[4,3-d]pyrimidin-5-yl)phenyl)sulfonyl)piperidin-4-yl)-3-hydroxypentane-1,5-diyl dinitrate] | 4.7 nM | 
12 | CCCc1nc(C)c2c(=O)[nH]c(-c3cc(S(=O)(=O)N4CCC([C@@H](CO[N+](=O)[O-])O[N+](=O)[O-])CC4)ccc3OCC)nn12 [Compound 2b, (S)-1-(1-((4-ethoxy-3-(5-methyl-4-oxo-7-propyl-3,4-dihydroimidazo[5,1-f][1,2,4]triazin-2-yl)phenyl)sulfonyl)piperidin-4-yl)ethane-1,2-diyl dinitrate] | 0.28 nM | 
13 | CCCc1nn(C)c2c(=O)[nH]c(-c3cc(S(=O)(=O)N4CCC([C@H](O)CO)CC4)ccc3OCC)nc12 [Compound 6, (S)-5-(5-((4-(1,2-dihydroxyethyl)piperidin-1-yl)sulfonyl)-2-ethoxyphenyl)-1-methyl-3-propyl-1,6-dihydro-7H-pyrazolo[4,3-d]pyrimidin-7-one] | 1.6 nM | 
14 | CCCc1nn(C)c2c(=O)[nH]c(-c3cc(S(=O)(=O)N4CCC(C(O)(CCO)CCO)CC4)ccc3OCC)nc12 [Compound 15, 5-(2-ethoxy-5-((4-(1,3,5-trihydroxypentan-3-yl)piperidin-1-yl)sulfonyl)phenyl)-1-methyl-3-propyl-1,6-dihydro-7H-pyrazolo[4,3-d]pyrimidin-7-one] | 2 nM | 
15 | CCCc1nc(C)c2c(=O)[nH]c(-c3cc(S(=O)(=O)N4CCC([C@H](O)CO)CC4)ccc3OCC)nn12 [Compound 26, (S)-2-(5-((4-(1,2-dihydroxyethyl)piperidin-1-yl)sulfonyl)-2-ethoxyphenyl)-5-methyl-7-propyl imidazo[5,1-f][1,2,4]triazin-4(3H)-one] | 0.07 nM | 
16 | CCCc1nc(C)c2c(=O)[nH]c(-c3cc(S(=O)(=O)N4CCC(C(O)C(CO)CO)CC4)ccc3OCC)nn12 (centres unmarked) [Compound 29, 2-(5-((4-(1,3-dihydroxy-2-(hydroxymethyl)propyl)piperidin-1-yl)sulfonyl)-2-ethoxyphenyl)-5-methyl-7-propylimidazo[5,1-f][1,2,4]triazin-4(3H)-one] | 0.37 nM | 
17 | CCCc1nn(C)c2c(=O)[nH]c(-c3cc(S(=O)(=O)N4CCN(C)CC4)ccc3OCC)nc12 [Sildenafil, 5-(2-ethoxy-5-((4-methylpiperazin-1-yl)sulfonyl)phenyl)-1-methyl-3-propyl-1,6-dihydro-7H-pyrazolo[4,3-d]pyrimidin-7-one, reference compound] |  | fraction unbound [2, 4]: 0.0421; fraction unbound [2, 3]: 0.0419

Second part, led by results:

Row | IC50 [1] | Compound | further results
18 | 0.2 nM | CCCc1nc(C)c2c(=O)[nH]c(-c3cc(S(=O)(=O)N4CCC(C(O)CCO[N+](=O)[O-])CC4)ccc3OCC)nn12 (single isomer, unassigned) [Compound 2e, 3-(1-((4-ethoxy-3-(5-methyl-4-oxo-7-propyl-3,4-dihydroimidazo[5,1-f][1,2,4]triazin-2-yl)phenyl)sulfonyl)piperidin-4-yl)-3-hydroxypropyl nitrate] | 
19 | 0.3 nM | CCCc1nc(C)c2c(=O)[nH]c(-c3cc(S(=O)(=O)N4CCC(C(O)CCO[N+](=O)[O-])CC4)ccc3OCC)nn12 (single isomer, unassigned) [Compound 2f, 3-(1-((4-ethoxy-3-(5-methyl-4-oxo-7-propyl-3,4-dihydroimidazo[5,1-f][1,2,4]triazin-2-yl)phenyl)sulfonyl)piperidin-4-yl)-3-hydroxypropyl nitrate] | 
20 | 0.26 nM | CCCc1nc(C)c2c(=O)[nH]c(-c3cc(S(=O)(=O)N4CCC(C(CO)O[N+](=O)[O-])CC4)ccc3OCC)nn12 (single isomer, unassigned) [Compound 2k, 1-(1-((4-ethoxy-3-(5-methyl-4-oxo-7-propyl-3,4-dihydroimidazo[5,1-f][1,2,4]triazin-2-yl)phenyl)sulfonyl)piperidin-4-yl)-2-hydroxyethyl nitrate] | 
21 | 0.17 nM | CCCc1nc(C)c2c(=O)[nH]c(-c3cc(S(=O)(=O)N4CCC(C(CO)O[N+](=O)[O-])CC4)ccc3OCC)nn12 (single isomer, unassigned) [Compound 2l, 1-(1-((4-ethoxy-3-(5-methyl-4-oxo-7-propyl-3,4-dihydroimidazo[5,1-f][1,2,4]triazin-2-yl)phenyl)sulfonyl)piperidin-4-yl)-2-hydroxyethyl nitrate] | 
22 | 4.4 nM | CCCc1nn(C)c2c(=O)[nH]c(-c3cc(S(=O)(=O)N4CCC(C(O)CCO)CC4)ccc3OCC)nc12 (single isomer, unassigned) [Compound 14-1, 5-(5-((4-(1,3-dihydroxypropyl)piperidin-1-yl)sulfonyl)-2-ethoxyphenyl)-1-methyl-3-propyl-1,6-dihydro-7H-pyrazolo[4,3-d]pyrimidin-7-one] | 
23 | 3.9 nM | CCCc1nn(C)c2c(=O)[nH]c(-c3cc(S(=O)(=O)N4CCC(C(O)CCO)CC4)ccc3OCC)nc12 (single isomer, unassigned) [Compound 14-2, 5-(5-((4-(1,3-dihydroxypropyl)piperidin-1-yl)sulfonyl)-2-ethoxyphenyl)-1-methyl-3-propyl-1,6-dihydro-7H-pyrazolo[4,3-d]pyrimidin-7-one] | 
24 | 0.16 nM | CCCc1nc(C)c2c(=O)[nH]c(-c3cc(S(=O)(=O)N4CCC([C@H](O)CO[N+](=O)[O-])CC4)ccc3OCC)nn12 [Compound 2d, (S)-2-(1-((4-ethoxy-3-(5-methyl-4-oxo-7-propyl-3,4-dihydroimidazo[5,1-f][1,2,4]triazin-2-yl)phenyl)sulfonyl)piperidin-4-yl)-2-hydroxyethyl nitrate] | fraction unbound [2, 4]: 0.0173; fraction unbound [2, 3]: 0.0173
